Some test systems named below: UACC-62 melanoma; HS 578T breast; COLO 205 colon; OVCAR-5 ovarian; HCT-15 colon; SK-MEL-2 melanoma; CAKI-1 renal; DU-145 prostate; RXF 393 renal; U251 CNS.
Holding throughout (assay): growth of human tumour cells (NCI), 48 h

Several values for one entry are separate records, joined by “and”; a condition that tells them apart may be missing. Identical values can stand only once.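 Where inhibition never reached the appropriate level, the endpoint shown equals the highest concentration tested. Otherwise, values were interpolated linearly from a five-concentration, 48-hour dose response in 96-well plates. GI50 marks 50% less growth. At the TGI there is no net growth.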

For `COc1ccc(C(=O)Nc2ncc(Cc3ccc(Cl)cc3)s2)cc1`, the GI50 with UACC-62 melanoma was 0.0475 µM; in the assay on HS 578T breast, 0.0407 µM; in the assay on COLO 205 colon, 0.0533 µM; in the assay with OVCAR-5 ovarian it was 0.247 µM; in the assay on HCT-15 colon, 0.044 µM; with SK-MEL-2 melanoma, 0.532 µM. Further, the GI50 in the assay on CAKI-1 renal is 0.0471 µM; with DU-145 prostate it was 0.104 µM; in the assay with RXF 393 renal it was 0.048 µM; with U251 CNS it was 0.0691 µM. Besides, the TGI was over 100 µM with UACC-62 melanoma; over 77 µM with HS 578T breast; 2.29 µM in the assay with COLO 205 colon; over 100 µM with OVCAR-5 ovarian; over 100 µM in the assay with HCT-15 colon; over 100 µM in the assay on SK-MEL-2 melanoma. Also, the TGI in the assay with CAKI-1 renal is over 73.1 µM; with DU-145 prostate, over 100 µM; in the assay on RXF 393 renal it was 0.927 µM; with U251 CNS, over 100 µM.
Turning to `C=C1CCC2C(/C=C(\C)CCC1O)OC(=O)C2C` (centres undefined), the GI50 in the assay on UACC-62 melanoma, in the assay on HS 578T breast, with COLO 205 colon, in the assay on OVCAR-5 ovarian, in the assay on HCT-15 colon and in the assay on SK-MEL-2 melanoma was over 100 µM each time. In addition, the GI50 in the assay on CAKI-1 renal was over 100 µM; in the assay with DU-145 prostate, over 100 µM; in the assay with RXF 393 renal it was 23.2 µM; in the assay on U251 CNS, over 100 µM. In addition, the TGI in the assay with UACC-62 melanoma, in the assay on HS 578T breast, in the assay with COLO 205 colon, with OVCAR-5 ovarian, in the assay with HCT-15 colon and in the assay with SK-MEL-2 melanoma was over 100 µM each time. The TGI in the assay with CAKI-1 renal, in the assay with DU-145 prostate, in the assay with RXF 393 renal and in the assay with U251 CNS was over 100 µM in each case.
Turning to `CC(C)(C)c1cc(O)c(O)c(C(C)(C)C)c1`, the GI50 was 2.54 µM in the assay on UACC-62 melanoma; 3.9 µM in the assay with HS 578T breast; 3.61 µM with COLO 205 colon; 11.1 µM in the assay on OVCAR-5 ovarian; 3.38 µM with HCT-15 colon; 3.74 µM with SK-MEL-2 melanoma. The GI50 in the assay on CAKI-1 renal was 2.79 µM; in the assay with DU-145 prostate, 4.6 µM; in the assay on RXF 393 renal it was 4.4 µM; with U251 CNS it was 4.35 µM. The TGI with UACC-62 melanoma was determined as 7.78 µM; with HS 578T breast it was 26.7 µM; in the assay with COLO 205 colon, 12.2 µM; with OVCAR-5 ovarian, 23.3 µM; in the assay with HCT-15 colon, 11.2 µM; in the assay with SK-MEL-2 melanoma, 11.4 µM. The TGI with CAKI-1 renal turned out to be 8.63 µM; in the assay on DU-145 prostate, 15.8 µM; in the assay on RXF 393 renal, 13.5 µM; in the assay with U251 CNS, 16.1 µM.
On to `O=c1cc(-c2cccc(F)c2)[nH]c2cc3c(cc12)OCO3`, for which the TGI in the assay with UACC-62 melanoma was over 64.9 µM; in the assay on HS 578T breast, 0.181 µM; with COLO 205 colon it was 0.364 µM; with OVCAR-5 ovarian it was over 100 µM; in the assay on HCT-15 colon, 12.1 µM and > 24.9 µM; in the assay with SK-MEL-2 melanoma, 2.9 µM and 23.6 µM. Besides, the TGI was over 53.3 µM with CAKI-1 renal; 1.63 µM with DU-145 prostate; 4.84 µM in the assay on RXF 393 renal; 9.58 µM and 49.1 µM in the assay with U251 CNS. Moreover, the GI50 in the assay on HCT-15 colon was 0.29 µM; in the assay with SK-MEL-2 melanoma it was 0.23 µM; with U251 CNS it was 0.268 µM.
As to `CN1CCN(CC#Cc2cccc(C(=O)c3cnn(-c4ccc(F)cc4)c3N)c2)CC1`, the GI50 in the assay with UACC-62 melanoma, in the assay with HS 578T breast, in the assay on COLO 205 colon, with OVCAR-5 ovarian, in the assay on HCT-15 colon and with SK-MEL-2 melanoma was over 25 µM throughout. Also, the GI50 in the assay on CAKI-1 renal, in the assay with DU-145 prostate, with RXF 393 renal and in the assay on U251 CNS was over 25 µM throughout. Besides, the TGI in the assay on UACC-62 melanoma, in the assay on HS 578T breast, in the assay on COLO 205 colon, with OVCAR-5 ovarian, in the assay with HCT-15 colon and in the assay on SK-MEL-2 melanoma was over 25 µM each time. For the same compound, the TGI in the assay on CAKI-1 renal, in the assay with DU-145 prostate, with RXF 393 renal and in the assay with U251 CNS was over 25 µM in each case.
Take `Cc1nn(-c2ccc(S(=O)(=O)[O-])cc2)c([O-])c1N=[N+](C)c1ccc(-c2ccc(N=Nc3ccc4c(S(=O)(=O)[O-])cc(S(=O)(=O)[O-])c(N)c4c3[O-])c([O-])c2)cc1[O-].[Cu+2].[Cu+2].[Na+]`: the GI50 in the assay on UACC-62 melanoma, in the assay on HS 578T breast, with COLO 205 colon, with OVCAR-5 ovarian, in the assay with HCT-15 colon and with SK-MEL-2 melanoma was over 100 µM throughout. The GI50 in the assay on CAKI-1 renal, in the assay with DU-145 prostate, in the assay on RXF 393 renal and with U251 CNS was over 100 µM in each case. The TGI in the assay with UACC-62 melanoma, in the assay on HS 578T breast, in the assay with COLO 205 colon, in the assay on OVCAR-5 ovarian, with HCT-15 colon and in the assay on SK-MEL-2 melanoma was over 100 µM in each case. In addition, the TGI in the assay with CAKI-1 renal, in the assay with DU-145 prostate, with RXF 393 renal and in the assay with U251 CNS was over 100 µM each time.
Turning to `COc1cccc(/C=C/C(=O)c2cc3c(N)c(C(=O)Nc4ccccc4C)sc3nc2C)c1`, the GI50 in the assay on UACC-62 melanoma was 0.905 µM; in the assay with HS 578T breast, 1.63 µM; in the assay with COLO 205 colon it was 2.02 µM; in the assay on OVCAR-5 ovarian it was 1.21 µM; in the assay with HCT-15 colon, 0.854 µM; with SK-MEL-2 melanoma, 1.7 µM. Besides, the GI50 in the assay with CAKI-1 renal was 1.66 µM; in the assay on DU-145 prostate, 1.32 µM; in the assay with RXF 393 renal it was 0.768 µM; with U251 CNS it was 0.892 µM. Besides, the TGI in the assay on UACC-62 melanoma is 2 µM; in the assay on HS 578T breast, over 50 µM; in the assay on COLO 205 colon it was 7.61 µM; with OVCAR-5 ovarian, 3.76 µM; in the assay with HCT-15 colon it was 1.87 µM; in the assay on SK-MEL-2 melanoma it was 8.18 µM. The TGI came to 5.75 µM in the assay with CAKI-1 renal, 4.08 µM in the assay on DU-145 prostate, 1.53 µM in the assay with RXF 393 renal and 1.81 µM with U251 CNS.
As to `COc1ccc(NC(=O)Nc2n[nH]c3ccccc23)cc1`, the GI50 in the assay on UACC-62 melanoma, in the assay on HS 578T breast, with COLO 205 colon, in the assay with OVCAR-5 ovarian, in the assay with HCT-15 colon and with SK-MEL-2 melanoma was over 100 µM in each case. Moreover, the GI50 in the assay with CAKI-1 renal, with DU-145 prostate, in the assay with RXF 393 renal and in the assay on U251 CNS was over 100 µM in each case. The TGI in the assay on UACC-62 melanoma, in the assay on HS 578T breast, in the assay with COLO 205 colon, with OVCAR-5 ovarian, in the assay on HCT-15 colon and in the assay on SK-MEL-2 melanoma was over 100 µM throughout. In addition, the TGI in the assay on CAKI-1 renal, in the assay with DU-145 prostate, in the assay with RXF 393 renal and with U251 CNS was over 100 µM each time.
On to `CC(=O)Nc1cccc(-n2c(=O)n(C3CC3)c(=O)c3c(Nc4ccc(I)cc4F)n(C)c(=O)c(C)c32)c1`, for which the GI50 is < 0.01 µM and 0.00184 µM in the assay on UACC-62 melanoma; 4.06 µM and 4.64 µM in the assay on HS 578T breast; < 0.01 µM and 0.00125 µM in the assay on COLO 205 colon; < 0.01 µM and 0.00472 µM with OVCAR-5 ovarian; 0.65 µM and 0.864 µM in the assay on HCT-15 colon; < 0.01 µM and 0.002 µM in the assay with SK-MEL-2 melanoma. Also, the GI50 was 0.203 µM with CAKI-1 renal; 3.36 µM and > 4.01 µM in the assay on DU-145 prostate; 0.0661 µM and 0.148 µM in the assay on RXF 393 renal; 0.401 µM in the assay on U251 CNS. Also, the TGI in the assay on UACC-62 melanoma is 0.0182 µM; with HS 578T breast, 43.8 µM and > 10 µM; in the assay on OVCAR-5 ovarian, 29.8 µM and > 10 µM; with HCT-15 colon, over 75.3 µM; with SK-MEL-2 melanoma, 0.0544 µM; with CAKI-1 renal it was over 46.5 µM. The TGI with DU-145 prostate is 93.9 µM and > 10 µM; with RXF 393 renal it was 13.1 µM and > 5.97 µM; in the assay with U251 CNS, 32 µM and > 10 µM.
In the case of `COC(=O)C(=O)CC(=O)CCn1ncc(Cl)c(Cl)c1=O`, the TGI amounted to 25.8 µM with UACC-62 melanoma; 87.5 µM in the assay on HS 578T breast; 31.8 µM in the assay with COLO 205 colon; 34.9 µM in the assay on OVCAR-5 ovarian; 15.7 µM in the assay with HCT-15 colon; 32.5 µM in the assay with SK-MEL-2 melanoma. Further, the TGI came out at 9.42 µM in the assay on CAKI-1 renal, 35 µM with DU-145 prostate, 33.9 µM with RXF 393 renal and 22 µM in the assay with U251 CNS. Also, the GI50 in the assay with HS 578T breast was 27.3 µM; in the assay on DU-145 prostate it was 18.3 µM.
Take `Fc1cccc(COc2ccc(Nc3ncncc3C#Cc3ccccc3)cc2Cl)c1`: the GI50 in the assay with UACC-62 melanoma, in the assay with HS 578T breast, in the assay with COLO 205 colon, in the assay on OVCAR-5 ovarian, in the assay on HCT-15 colon and in the assay with SK-MEL-2 melanoma was over 25 µM each time. Besides, the GI50 in the assay on CAKI-1 renal was 12.5 µM; in the assay with DU-145 prostate it was over 25 µM; in the assay on RXF 393 renal, over 25 µM; in the assay on U251 CNS, over 25 µM. The TGI in the assay on UACC-62 melanoma, with HS 578T breast, in the assay with COLO 205 colon, with OVCAR-5 ovarian, with HCT-15 colon and in the assay on SK-MEL-2 melanoma was over 25 µM each time. The TGI with CAKI-1 renal, with DU-145 prostate, in the assay on RXF 393 renal and in the assay with U251 CNS was over 25 µM in each case.
